Columns and labels:
potassium arsenate = compound: O=[As]([O-])(O)O.[K+] [potassium arsenate]; experiment: thermal stability z-score vs DMSO; higher = more thermally stabilized by treatment; conditions: HeLa; arsenate concentration 1 mM
Experimental: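 Cellular thermal proteome profiling in HeLa cells treated with 1 mM arsenate for 1 h (DMSO pretreatment), heated to ten temperatures (37-66.3 °C). Soluble protein was quantified by TMT mass spectrometry relative to DMSO controls; the thermal stability score was transformed to a z-score; mean of n = 3 experiments.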

lipoamide = compound: NC(=O)CCCCC1CCSS1 [lipoamide]; experiment: as above; conditions: HeLa, lipoamide concentration 100 µM
Experimental: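 Cellular thermal proteome profiling in HeLa cells. Cells were treated with 100 µM lipoamide for 1 h, with or without 1 mM arsenate for a further 1 h, then heated to ten temperatures (37-66.3 °C), and soluble protein was quantified by TMT mass spectrometry relative to 0.1% DMSO controls. The thermal stability score (sum of log2 fold changes minus the abundance score) was transformed to a z-score; mean of n = 3 experiments.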

[1] = arsenate co-treatment: 1 mM arsenate 1 h
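Further: each temperature applied for 3 min, abundance score taken as mean log2 fold change at the two lowest temperatures, z-score obtained by mean subtraction and division by SD.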

Sequence of UniProt Q13620 (Q13620 whole entry): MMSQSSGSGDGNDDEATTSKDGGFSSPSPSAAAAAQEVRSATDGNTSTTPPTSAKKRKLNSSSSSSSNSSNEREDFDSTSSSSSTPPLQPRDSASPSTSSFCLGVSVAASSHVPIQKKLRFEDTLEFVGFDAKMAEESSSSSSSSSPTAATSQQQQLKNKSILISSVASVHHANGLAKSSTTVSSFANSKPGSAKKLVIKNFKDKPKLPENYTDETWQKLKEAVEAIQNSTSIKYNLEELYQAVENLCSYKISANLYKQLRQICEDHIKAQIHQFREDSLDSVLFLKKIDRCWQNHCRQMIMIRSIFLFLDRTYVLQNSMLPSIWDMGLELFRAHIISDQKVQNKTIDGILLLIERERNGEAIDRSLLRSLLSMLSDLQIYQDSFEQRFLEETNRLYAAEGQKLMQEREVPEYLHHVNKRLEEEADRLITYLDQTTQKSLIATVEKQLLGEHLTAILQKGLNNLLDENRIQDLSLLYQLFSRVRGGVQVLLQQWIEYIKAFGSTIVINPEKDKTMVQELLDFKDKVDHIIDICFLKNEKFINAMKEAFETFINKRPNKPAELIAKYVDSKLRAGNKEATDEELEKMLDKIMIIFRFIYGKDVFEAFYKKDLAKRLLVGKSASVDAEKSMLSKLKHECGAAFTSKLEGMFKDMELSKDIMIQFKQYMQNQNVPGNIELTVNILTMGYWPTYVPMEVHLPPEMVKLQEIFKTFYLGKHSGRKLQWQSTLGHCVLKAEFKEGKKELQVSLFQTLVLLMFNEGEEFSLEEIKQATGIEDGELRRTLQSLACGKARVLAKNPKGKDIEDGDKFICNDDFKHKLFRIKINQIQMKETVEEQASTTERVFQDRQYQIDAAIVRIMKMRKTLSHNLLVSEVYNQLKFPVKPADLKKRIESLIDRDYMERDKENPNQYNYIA
Sequence of UniProt Q9UNI6 (Q9UNI6 whole entry): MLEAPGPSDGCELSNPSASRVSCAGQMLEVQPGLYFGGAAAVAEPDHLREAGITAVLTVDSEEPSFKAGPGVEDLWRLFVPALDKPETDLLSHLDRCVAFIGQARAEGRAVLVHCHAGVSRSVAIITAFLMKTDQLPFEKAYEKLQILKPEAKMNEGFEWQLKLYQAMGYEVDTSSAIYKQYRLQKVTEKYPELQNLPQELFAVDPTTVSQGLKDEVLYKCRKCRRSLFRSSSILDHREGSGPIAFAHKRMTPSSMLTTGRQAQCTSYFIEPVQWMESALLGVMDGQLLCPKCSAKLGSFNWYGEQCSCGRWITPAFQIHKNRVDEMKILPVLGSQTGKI
Sequence of UniProt O94967 (O94967 whole entry): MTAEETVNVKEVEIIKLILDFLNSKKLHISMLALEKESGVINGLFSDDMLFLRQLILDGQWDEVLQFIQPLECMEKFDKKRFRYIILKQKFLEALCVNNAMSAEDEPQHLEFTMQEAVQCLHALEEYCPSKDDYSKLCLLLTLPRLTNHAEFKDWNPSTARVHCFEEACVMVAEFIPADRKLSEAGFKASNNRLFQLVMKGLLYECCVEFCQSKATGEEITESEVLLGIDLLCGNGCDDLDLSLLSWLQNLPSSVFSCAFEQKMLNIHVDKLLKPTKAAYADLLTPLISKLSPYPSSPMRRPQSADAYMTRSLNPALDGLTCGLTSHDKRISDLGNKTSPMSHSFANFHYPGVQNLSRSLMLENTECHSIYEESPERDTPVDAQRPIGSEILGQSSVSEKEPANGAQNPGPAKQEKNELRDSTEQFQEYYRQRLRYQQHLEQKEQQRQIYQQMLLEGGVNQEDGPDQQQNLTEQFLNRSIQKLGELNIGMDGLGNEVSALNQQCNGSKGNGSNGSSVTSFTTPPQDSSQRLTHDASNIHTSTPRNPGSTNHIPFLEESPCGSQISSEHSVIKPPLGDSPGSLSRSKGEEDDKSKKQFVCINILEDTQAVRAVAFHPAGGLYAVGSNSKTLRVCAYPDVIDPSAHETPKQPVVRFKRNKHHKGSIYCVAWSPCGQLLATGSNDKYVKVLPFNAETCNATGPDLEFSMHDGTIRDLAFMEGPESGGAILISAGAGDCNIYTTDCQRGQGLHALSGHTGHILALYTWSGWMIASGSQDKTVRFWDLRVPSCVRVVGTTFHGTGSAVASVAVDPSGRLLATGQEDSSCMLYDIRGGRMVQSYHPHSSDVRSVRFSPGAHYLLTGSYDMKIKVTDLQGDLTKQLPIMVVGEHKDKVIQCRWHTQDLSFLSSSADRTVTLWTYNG
Sequence of UniProt Q8WYA6 (Q8WYA6 whole entry): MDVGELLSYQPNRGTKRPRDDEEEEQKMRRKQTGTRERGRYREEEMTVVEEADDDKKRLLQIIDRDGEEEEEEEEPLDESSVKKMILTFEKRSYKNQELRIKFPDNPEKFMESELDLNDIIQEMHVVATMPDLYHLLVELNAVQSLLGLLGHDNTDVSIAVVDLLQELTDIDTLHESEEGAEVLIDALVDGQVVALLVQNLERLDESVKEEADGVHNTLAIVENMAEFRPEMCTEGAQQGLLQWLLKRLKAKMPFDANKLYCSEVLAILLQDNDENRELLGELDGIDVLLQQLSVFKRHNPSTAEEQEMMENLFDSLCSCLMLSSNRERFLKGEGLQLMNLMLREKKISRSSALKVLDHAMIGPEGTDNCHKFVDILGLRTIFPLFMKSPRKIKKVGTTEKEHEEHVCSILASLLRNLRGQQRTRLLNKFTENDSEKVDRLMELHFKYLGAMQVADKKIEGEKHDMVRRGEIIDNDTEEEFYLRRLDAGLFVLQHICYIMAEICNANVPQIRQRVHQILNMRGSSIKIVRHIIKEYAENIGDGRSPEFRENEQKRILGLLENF
Sequence of UniProt Q9UKV5 (Q9UKV5 whole entry): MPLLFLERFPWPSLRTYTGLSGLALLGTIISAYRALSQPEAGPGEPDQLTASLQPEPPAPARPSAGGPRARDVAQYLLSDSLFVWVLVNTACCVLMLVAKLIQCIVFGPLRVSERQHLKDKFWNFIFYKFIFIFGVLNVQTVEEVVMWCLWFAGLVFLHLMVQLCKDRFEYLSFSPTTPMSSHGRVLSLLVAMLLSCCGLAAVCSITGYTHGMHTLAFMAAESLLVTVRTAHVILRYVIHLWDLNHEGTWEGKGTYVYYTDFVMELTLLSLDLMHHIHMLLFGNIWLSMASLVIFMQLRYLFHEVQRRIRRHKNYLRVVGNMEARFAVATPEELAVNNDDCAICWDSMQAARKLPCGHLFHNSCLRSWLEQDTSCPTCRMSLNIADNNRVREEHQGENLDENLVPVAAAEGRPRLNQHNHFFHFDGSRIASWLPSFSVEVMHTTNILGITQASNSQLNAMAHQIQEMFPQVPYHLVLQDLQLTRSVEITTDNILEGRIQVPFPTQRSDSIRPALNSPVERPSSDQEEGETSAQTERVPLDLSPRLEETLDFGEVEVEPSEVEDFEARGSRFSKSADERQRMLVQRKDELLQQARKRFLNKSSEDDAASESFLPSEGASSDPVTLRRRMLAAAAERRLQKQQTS
Sequence of UniProt P05362 (P05362 whole entry): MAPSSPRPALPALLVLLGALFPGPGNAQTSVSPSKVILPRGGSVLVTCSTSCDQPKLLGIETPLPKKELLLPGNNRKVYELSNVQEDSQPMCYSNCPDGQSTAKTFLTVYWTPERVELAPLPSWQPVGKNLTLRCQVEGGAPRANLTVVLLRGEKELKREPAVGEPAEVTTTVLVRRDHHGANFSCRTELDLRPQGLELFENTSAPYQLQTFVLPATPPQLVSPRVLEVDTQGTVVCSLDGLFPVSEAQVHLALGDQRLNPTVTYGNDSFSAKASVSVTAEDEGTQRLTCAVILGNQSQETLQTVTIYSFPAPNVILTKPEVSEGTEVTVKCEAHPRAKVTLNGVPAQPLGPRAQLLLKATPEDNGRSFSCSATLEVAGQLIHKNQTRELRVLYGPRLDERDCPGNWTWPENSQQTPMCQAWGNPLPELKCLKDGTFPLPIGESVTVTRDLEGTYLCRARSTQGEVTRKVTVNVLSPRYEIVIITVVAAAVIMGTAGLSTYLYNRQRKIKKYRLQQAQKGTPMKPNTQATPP
Sequence of UniProt Q15906 (Q15906 whole entry): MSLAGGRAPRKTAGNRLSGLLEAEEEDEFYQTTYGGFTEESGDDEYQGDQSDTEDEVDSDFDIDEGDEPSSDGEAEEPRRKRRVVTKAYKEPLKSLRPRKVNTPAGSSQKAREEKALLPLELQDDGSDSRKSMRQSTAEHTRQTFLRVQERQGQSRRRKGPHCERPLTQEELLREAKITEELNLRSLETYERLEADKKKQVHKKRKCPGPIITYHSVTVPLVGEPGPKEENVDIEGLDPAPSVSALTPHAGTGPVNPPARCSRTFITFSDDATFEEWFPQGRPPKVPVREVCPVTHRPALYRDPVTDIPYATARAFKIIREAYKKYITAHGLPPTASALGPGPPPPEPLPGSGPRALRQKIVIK
Sequence of UniProt Q13217 (Q13217 whole entry): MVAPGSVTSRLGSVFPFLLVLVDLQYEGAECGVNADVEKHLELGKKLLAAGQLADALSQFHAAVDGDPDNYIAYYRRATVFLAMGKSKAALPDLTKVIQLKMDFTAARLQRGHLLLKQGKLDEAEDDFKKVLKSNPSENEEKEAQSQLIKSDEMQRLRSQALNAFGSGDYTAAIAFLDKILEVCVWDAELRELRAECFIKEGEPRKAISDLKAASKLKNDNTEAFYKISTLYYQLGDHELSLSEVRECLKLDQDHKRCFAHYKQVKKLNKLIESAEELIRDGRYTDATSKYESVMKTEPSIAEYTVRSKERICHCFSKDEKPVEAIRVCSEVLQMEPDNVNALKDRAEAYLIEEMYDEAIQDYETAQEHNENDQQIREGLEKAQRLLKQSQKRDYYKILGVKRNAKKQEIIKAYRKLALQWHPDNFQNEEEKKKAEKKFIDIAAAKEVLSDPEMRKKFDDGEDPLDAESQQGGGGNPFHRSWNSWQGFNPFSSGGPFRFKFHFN
Sequence of UniProt Q96LR5 (Q96LR5 whole entry): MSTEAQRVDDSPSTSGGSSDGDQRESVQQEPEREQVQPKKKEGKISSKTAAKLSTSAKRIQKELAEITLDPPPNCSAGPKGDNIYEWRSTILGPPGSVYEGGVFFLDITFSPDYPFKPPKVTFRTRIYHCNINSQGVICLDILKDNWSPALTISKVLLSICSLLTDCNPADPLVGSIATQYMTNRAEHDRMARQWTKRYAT

Row | Target | thermal stability z-score (potassium arsenate) | thermal stability z-score (lipoamide; [1]) | thermal stability z-score (lipoamide; arsenate co-treatment: none)
1 | HSDL2 (UniProt Q6YN16) | 0.41 | 0.183 | 0.156
2 | UBE2E2 (UniProt Q96LR5) | 4.13 | -0.607 | -0.124
3 | DDHD2 (UniProt O94830) | -0.0424 | 0.3 | -0.141
4 | ARID1A (UniProt O14497) | -0.205 | 0.0489 | -0.0643
5 | RAB1B (UniProt Q9H0U4) | 0.196 | 0.238 | 0.549
6 | WDR33 (UniProt Q9C0J8) | -0.105 | 0.0589 | -0.0858
7 | GRWD1 (UniProt Q9BQ67) | -0.541 | 0.304 | 0.0318
8 | KIFC1 (UniProt Q9BW19) | -0.106 | 0.126 | 0.0537
9 | TRAP1 (UniProt Q12931) | -0.477 | -1.2 | 0.188
10 | INPP4A (UniProt Q96PE3) | 0.221 | 0.395 | 0.319
11 | SELK (UniProt Q9Y6D0) | 0.22 | 0.406 | -0.759
12 | ANTXR1 (UniProt Q9H6X2) | 0.283 | 0.0337 | -0.146
13 | NDUFAF4 (UniProt Q9P032) | 0.182 | -0.153 | 0.199
14 | DDB2 (UniProt Q92466) | 0.0883 | -0.684 | -1.2
15 | DUSP23 (UniProt Q9BVJ7) | -0.0505 | 1.22 | 0.839
16 | ICAM1 (UniProt P05362) | -0.49 | 0.33 | -0.273
17 | HSD17B11 (UniProt Q8NBQ5) | 0.265 | 0.563 | 0.342
18 | MMTAG2 (UniProt Q9BU76) | 0.188 | 2.29 | 0.684
19 | STK3 (UniProt Q13188) | 0.098 | -0.139 | -0.0255
20 | MAP4K5 (UniProt Q9Y4K4) | 0.00285 | -0.212 | 0.00139
21 | DDX47 (UniProt Q9H0S4) | 0.634 | 1.72 | 0.253
22 | LRRC8D (UniProt Q7L1W4) | -0.198 | 0.38 | -0.0451
23 | MYL6 (UniProt P60660) | -0.312 | 0.576 | 0.451
24 | LRRC8A (UniProt Q8IWT6) | -0.275 | 0.614 | 0.234
25 | STAT6 (UniProt P42226) | 0.472 | 0.0546 | -0.269
26 | DNAJC3 (UniProt Q13217) | 0.823 | -4.01 | -3.61
27 | DUSP12 (UniProt Q9UNI6) | 1.05 | -0.0977 | 0.123
28 | DENR (UniProt O43583) | -0.702 | 0.109 | -0.188

Row | Target | thermal stability z-score (potassium arsenate) | thermal stability z-score (lipoamide; [1]) | thermal stability z-score (lipoamide; arsenate co-treatment: none)
29 | SIL1 (UniProt Q9H173) | 1.44 | -3.15 | -2.4
30 | FAM134C (UniProt Q86VR2) | 1.35 | 0.622 | -0.494
31 | ACBD3 (UniProt Q9H3P7) | 0.21 | 0.447 | 0.826
32 | MEPCE (UniProt Q7L2J0) | 1.22 | -0.372 | 0.65
33 | PAIP2 (UniProt Q9BPZ3) | -1.06 | 0.427 | 0.233
34 | CUL4B (UniProt Q13620) | -0.051 | 0.0797 | -0.0817
35 | FRMD8 (UniProt Q9BZ67) | -0.172 | 0.263 | 0.131
36 | MYO10 (UniProt Q9HD67) | 0.432 | 0.223 | 0.44
37 | HAX1 (UniProt O00165) | -0.11 | -1 | -0.895
38 | GALNT6 (UniProt Q8NCL4) | -0.396 | -0.515 | -0.683
39 | DHRS13 (UniProt Q6UX07) | 0.0183 | 0.049 | 0.274
40 | H2AFY (UniProt O75367) | 0.327 | 0.112 | 0.0481
41 | NUDT4 (UniProt Q9NZJ9) | -0.881 | -0.239 | -0.659
42 | MPG (UniProt P29372) | 0.572 | 0.128 | 0.378
43 | VPS72 (UniProt Q15906) | -2.49 | 1.96 | -0.00979
44 | RASA1 (UniProt P20936) | 1.15 | 0.447 | 0.753
45 | WDR47 (UniProt O94967) | -0.0616 | 0.51 | 0.317
46 | INPP5B (UniProt P32019) | -0.211 | -0.146 | -0.514
47 | ERCC6L (UniProt Q2NKX8) | 0.265 | -0.457 | -0.258
48 | LTN1 (UniProt O94822) | 0.0334 | 0.0185 | 0.0878
49 | CTNNBL1 (UniProt Q8WYA6) | -0.00699 | -0.0207 | 0.00313
50 | PHF14 (UniProt O94880) | -0.242 | -0.247 | 0.314
51 | AMFR (UniProt Q9UKV5) | 0.444 | -0.269 | -0.845
52 | LHPP (UniProt Q9H008) | 0.146 | 1.03 | 0.991
53 | TRIM27 (UniProt P14373) | -0.874 | 0.641 | -0.0794
54 | STK24 (UniProt Q9Y6E0) | 0.0137 | 0.0491 | -0.118
55 | NAE1 (UniProt Q13564) | -0.18 | -0.406 | -0.333
